Experimental data reported in US20260265233A1, “BENZOTHIOPHENE DERIVATIVES AS RXFP1 AGONISTS” (BRISTOL-MYERS SQUIBB COMPANY, priority 2021, published 2026).

Target: T1, human RXFP1 (Homo sapiens, UniProt Q9HBX9)
T1 construct: expressed in transfected cells
T1 sequence (Q9HBX9 1-757): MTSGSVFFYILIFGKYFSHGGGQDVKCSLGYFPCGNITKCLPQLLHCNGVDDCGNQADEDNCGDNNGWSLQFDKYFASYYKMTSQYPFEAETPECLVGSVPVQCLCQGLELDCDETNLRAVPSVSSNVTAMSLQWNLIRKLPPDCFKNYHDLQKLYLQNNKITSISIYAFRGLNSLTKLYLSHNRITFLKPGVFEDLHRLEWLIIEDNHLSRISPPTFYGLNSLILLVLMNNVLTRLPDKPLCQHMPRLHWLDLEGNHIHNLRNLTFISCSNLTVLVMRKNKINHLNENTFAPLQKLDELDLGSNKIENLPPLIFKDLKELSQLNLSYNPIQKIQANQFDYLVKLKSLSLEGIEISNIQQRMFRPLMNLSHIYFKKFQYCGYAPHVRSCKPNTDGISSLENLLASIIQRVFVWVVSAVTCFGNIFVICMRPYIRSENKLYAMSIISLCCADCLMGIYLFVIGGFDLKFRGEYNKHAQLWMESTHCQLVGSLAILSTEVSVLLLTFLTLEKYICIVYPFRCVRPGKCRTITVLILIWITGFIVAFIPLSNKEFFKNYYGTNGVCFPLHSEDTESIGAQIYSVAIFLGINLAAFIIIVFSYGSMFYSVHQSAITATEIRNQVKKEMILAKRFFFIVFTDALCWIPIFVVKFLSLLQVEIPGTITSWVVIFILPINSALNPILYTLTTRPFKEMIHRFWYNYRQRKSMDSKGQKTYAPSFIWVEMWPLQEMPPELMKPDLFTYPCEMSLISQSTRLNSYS
Test: hRXFP1 HEK293 cAMP assay (HTRF)
Format: cell-based
Conditions: HEK293 cells stably expressing human RXFP1; 30 min at rt; intracellular cAMP by HTRF
Procedure, shortened: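 Agonism is measured as cAMP by HTRF, quantified from a standard curve via the 665/590 nm ratio and fitted with a four-parameter logistic equation. Compounds (0.010 nM to 50 μM final, 2% DMSO) were applied for 30 min at rt to human RXFP1-expressing HEK293 cells in assay buffer containing 0.5 mM IBMX.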

COc1ccc(C2CC2C(=O)N2CC(OC)C2)cc1C(=O)Nc1c(C(=O)Nc2ccc(F)c(C(F)(F)F)c2)sc2cc(C(F)(F)F)ccc12 (centres unmarked) [Example 167, N-[4-fluoro-3-(trifluoromethyl)phenyl]-3-{2-methoxy-5-[2-(3-methoxyazetidine-1-carbonyl)cyclopropyl]benzamido}-6-(trifluoromethyl)-1-benzothiophene-2-carboxamide]
EC50: 400 nM

COc1ccc(C2CC2C(=O)N2CC(C(C)(C)O)C2)cc1C(=O)Nc1c(C(=O)Nc2ccc(F)c(C(F)(F)F)c2)sc2cc(C(F)(F)F)ccc12 (centres unmarked) [Example 169, N-[4-fluoro-3-(trifluoromethyl)phenyl]-3-(5-{2-[3-(2-hydroxypropan-2-yl)azetidine-1-carbonyl]cyclopropyl}-2-methoxy-benzamido)-6-(trifluoromethyl)-1-benzothiophene-2-carboxamide]
EC50: 2250 nM

COc1ccc(C2CC2C(=O)NCC(C)(C)O)cc1C(=O)Nc1c(C(=O)Nc2ccc(F)c(C(F)(F)F)c2)sc2cc(C(F)(F)F)ccc12 (centres unmarked) [Example 170, N-[4-fluoro-3-(trifluoromethyl)phenyl]-3-(5-{2-[(2-hydroxy-2-methylpropyl)carbamoyl]cyclopropyl}-2-methoxy-benzamido)-6-(trifluoromethyl)-1-benzothiophene-2-carboxamide]
EC50: 1100 nM

COc1ncc(C(=O)NCC2(S(C)(=O)=O)CC2)cc1C(=O)Nc1c(C(=O)Nc2ccc(F)c(C(F)(F)F)c2)sc2cc(C(F)(F)F)ccc12 [Example 171, N3-(2-((4-fluoro-3-(trifluoromethyl)phenyl)carbamoyl)-6-(trifluoromethyl)benzo[b]thiophen-3-yl)-2-methoxy-N5-((1-(methylsulfonyl)cyclopropyl)methyl) pyridine-3,5-dicarboxamide]
EC50: 9.1 nM

COc1ncc(C(=O)N2CC3(COC3)C2)cc1C(=O)Nc1c(C(=O)Nc2ccc(F)c(C(F)(F)F)c2)sc2cc(C(F)(F)F)ccc12 [Example 172, N-(2-((4-fluoro-3-(trifluoromethyl)phenyl)carbamoyl)-6-(trifluoromethyl)benzo[b]thiophen-3-yl)-2-methoxy-5-(2-oxa-6-azaspiro[3.3]heptane-6-carbonyl) nicotinamide]
EC50: 701 nM

COc1ncc(C(=O)N2CC(O)C2)cc1C(=O)Nc1c(C(=O)Nc2ccc(F)c(C(F)(F)F)c2)sc2cc(C(F)(F)F)ccc12 [Example 173, N-(2-((4-fluoro-3-(trifluoromethyl)phenyl)carbamoyl)-6-(trifluoromethyl)benzo[b]thiophen-3-yl)-5-(3-hydroxyazetidine-1-carbonyl)-2-methoxy-nicotinamide]
EC50: 179 nM

COc1ccc(C(=O)N2CC[C@H](O)C2)cc1C(=O)Nc1c(C(=O)Nc2ccc(F)c(C(F)(F)F)c2)sc2cc(C(F)(F)F)ccc12 [Example 174, (S)-N-(4-fluoro-3-(trifluoromethyl)phenyl)-3-(5-(3-hydroxy-pyrrolidine-1-carbonyl)-2-methoxy-benzamido)-6-(trifluoromethyl) benzo[b] thiophene-2-carboxamide]
EC50: 405 nM

COc1ccc(C(=O)N2CC[C@@H](O)C2)cc1C(=O)Nc1c(C(=O)Nc2ccc(F)c(C(F)(F)F)c2)sc2cc(C(F)(F)F)ccc12 [Example 175, (R)-N-(4-fluoro-3-(trifluoromethyl)phenyl)-3-(5-(3-hydroxy-pyrrolidine-1-carbonyl)-2-methoxy-benzamido)-6-(trifluoromethyl) benzo[b] thiophene-2-carboxamide]
EC50: 374 nM

COc1ccc(C(=O)N2CCC(CO)CC2)cc1C(=O)Nc1c(C(=O)Nc2ccc(F)c(C(F)(F)F)c2)sc2cc(C(F)(F)F)ccc12 [Example 176, N-(4-fluoro-3-(trifluoromethyl)phenyl)-3-(5-(4-(hydroxymethyl)piperidine-1-carbonyl)-2-methoxy-benzamido)-6-(trifluoromethyl) benzo[b] thiophene-2-carboxamide]
EC50: 279 nM

COc1ccc(C(=O)N2CC(CO)C2)cc1C(=O)Nc1c(C(=O)Nc2ccc(F)c(C(F)(F)F)c2)sc2cc(C(F)(F)F)ccc12 [Example 177, N-(4-fluoro-3-(trifluoromethyl)phenyl)-3-(5-(3-(hydroxymethyl)azetidine-1-carbonyl)-2-methoxy-benzamido)-6-(trifluoromethyl) benzo[b] thiophene-2-carboxamide]
EC50: 147 nM

COc1ccc(C(=O)N2CC(S(C)(=O)=O)C2)cc1C(=O)Nc1c(C(=O)Nc2ccc(F)c(C(F)(F)F)c2)sc2cc(C(F)(F)F)ccc12 [Example 178, N-(4-fluoro-3-(trifluoromethyl)phenyl)-3-(2-methoxy-5-(3-(methylsulfonyl)azetidine-1-carbonyl)benzamido)-6-(trifluoromethyl) benzo[b] thiophene-2-carboxamide]
EC50: 5.2 nM

COc1ccc(C(=O)N2CC(C(C)(C)O)C2)cc1C(=O)Nc1c(C(=O)Nc2ccc(F)c(C(F)(F)F)c2)sc2cc(C(F)(F)F)ccc12 [Example 179, N-(4-fluoro-3-(trifluoromethyl)phenyl)-3-(5-(3-(2-hydroxypropan-2-yl)azetidine-1-carbonyl)-2-methoxy-benzamido)-6-(trifluoromethyl) benzo[b] thiophene-2-carboxamide]
EC50: 179 nM

COc1ccc(C(=O)N2CC(C)(O)C2)cc1C(=O)Nc1c(C(=O)Nc2ccc(F)c(C(F)(F)F)c2)sc2cc(C(F)(F)F)ccc12 [Example 180, N-(4-fluoro-3-(trifluoromethyl)phenyl)-3-(5-(3-hydroxy-3-methylazetidine-1-carbonyl)-2-methoxy-benzamido)-6-(trifluoromethyl) benzo[b] thiophene-2-carboxamide]
EC50: 145 nM

COc1ccc(C(=O)N2CC3(COC3)C2)cc1C(=O)Nc1c(C(=O)Nc2ccc(F)c(C(F)(F)F)c2)sc2cc(C(F)(F)F)ccc12 [Example 181, N-(4-fluoro-3-(trifluoromethyl)phenyl)-3-(2-methoxy-5-(2-oxa-6-azaspiro[3.3]heptane-6-carbonyl)benzamido)-6-(trifluoromethyl) benzo[b] thiophene-2-carboxamide]
EC50: 544 nM

COc1cc(F)c(C(=O)N2CC(C(C)(C)O)C2)cc1C(=O)Nc1c(C(=O)Nc2ccc(F)c(C(F)(F)F)c2)sc2cc(C(F)(F)F)ccc12 [Example 182, N-(4-fluoro-3-(trifluoromethyl)phenyl)-3-(4-fluoro-5-(3-(2-hydroxypropan-2-yl)azetidine-1-carbonyl)-2-methoxy-benzamido)-6-(trifluoromethyl) benzo[b] thiophene-2-carboxamide]
EC50: 357 nM

COc1cc(F)c(C(=O)N2CC[C@@H](O)C2)cc1C(=O)Nc1c(C(=O)Nc2ccc(F)c(C(F)(F)F)c2)sc2cc(C(F)(F)F)ccc12 [Example 183, (R)-N-(4-fluoro-3-(trifluoromethyl)phenyl)-3-(4-fluoro-5-(3-hydroxy-pyrrolidine-1-carbonyl)-2-methoxy-benzamido)-6-(trifluoromethyl) benzo[b] thiophene-2-carboxamide]
EC50: 823 nM

COc1cc(F)c(C(=O)N2CCC(O)CC2)cc1C(=O)Nc1c(C(=O)Nc2ccc(F)c(C(F)(F)F)c2)sc2cc(C(F)(F)F)ccc12 [Example 184, N-(4-fluoro-3-(trifluoromethyl)phenyl)-3-(4-fluoro-5-(4-hydroxypiperidine-1-carbonyl)-2-methoxy-benzamido)-6-(trifluoromethyl) benzo[b] thiophene-2-carboxamide]
EC50: 349 nM
